In US20230123334A1, “AMINO LIPID COMPOUND, PREPARATION METHOD THEREFOR, AND APPLICATION THEREOF” (SHENZHEN SHENXIN BIOTECHNOLOGY CO., LTD., priority 2020, published 2023):

Tested on: HEK293 cells
Experiment: Preliminary screening as mRNA vectors, EGFP mRNA transfection of HEK293 cells
Assay type: cell-based
Conditions: EGFP mRNA 50 ng per well, 96-well plates; percentage of GFP fluorescent cells relative to total number of cells (Hoechst)
Summary of the method: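 Each well of HEK293 cells received 50 ng of EGFP mRNA. Efficiency was expressed as percent GFP-expressing cells over Hoechst-defined total cell number.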

Structure (SMILES) | Absolute mRNA transfection efficiency in HEK293 cells
CCCCCCCCCCCNc1nc(NCCN2CCCCC2)nc(SCCCCCCCC)n1 [Compound D4S8N11] | 0.3%
CCCCCCCCCCCCCCCCCCNc1nc(NCCCN(C)C)nc(SCCCCCC)n1 [Compound D6S6N18] | 60.1%
CCCCCCCCCCCCCCSc1nc(NCCCCCCCCCCC)nc(NCCN(CC)CC)n1 [Compound D7S14N11] | 17.0%
CCCCCCCCCCCCCCSc1nc(NCCCCCCC)nc(NCCN2CCCCC2)n1 [Compound D4S14N7] | 4.5%
CCCCCCCCCCCCCCCCCCSc1nc(NCCN(CC)CC)nc(N(CCCCCCCCCCCC)CCCCCCCCCCCC)n1 [D7S18^2N12] | 0.0%
CCCCCCCCCCCCCNc1nc(NCCN2CCN(C)CC2)nc(SCCCCCCC)n1 [Compound D5S7N13] | 39.5%
CCCCCCCCCCCCN(CCCCCCCCCCCC)c1nc(NCCN2CCOCC2)nc(SCCCCCCCCC)n1 [D2S9^2N12] | 0.1%
CCCCCCCCCCCCCCSc1nc(NCC2CCN(C)CC2)nc(SCCCCCC)n1 [Compound D10S6S14] | 54.4%
CCCCCCCCCCCSc1nc(NCCN2CCCC2)nc(SCCCCCCC)n1 [Compound D3S7S11] | 11.4%
CCCCCCCCCCCCCCCCCCSc1nc(NCCCCCCCCCCC)nc(NCCN2CCN(C)CC2)n1 [Compound D5S18N11] | 1.1%
CCCCCCCCCCCSc1nc(NCCCN2CCOCC2)nc(SCCCCCC)n1 [Compound D8S6S11] | 1.5%
CCCCCCCCCCSc1nc(NCC2CCN(C)CC2)nc(SCCCCCCC)n1 [Compound D10S7S10] | 55.8%
CCCCCCCCSc1nc(NCCN(C)C)nc(SCCCCCC)n1 [Compound D1S6S8] | 0.7%
CCCCCCCSc1nc(NCCCCCC)nc(NCCCN(C)C)n1 [Compound D6S7N6] | 8.8%
CCCCCCCCCCCCCCCCCCSc1nc(NCCCCCCCCCCCCC)nc(NCCCN2CCN(C)CC2)n1 [Compound D9S18N13] | 0.0%
CCCCCCCCCCCNc1nc(NCCN2CCOCC2)nc(SCCCCCCCCCCC)n1 [Compound D2S11N11] | 0.6%
CCCCCCCCCCCCCCSc1nc(NCCN2CCOCC2)nc(N(CCCCCCCCCCCC)CCCCCCCCCCCC)n1 [D2S14^2N12] | 0.0%
CCCCCCCCCCCCCCCCSc1nc(NCCCCCCCCC)nc(NCCN2CCCCC2)n1 [Compound D4S16N9] | 1.0%
CCCCCCCCCCCCCCCCSc1nc(NCCCCCCC)nc(NCCCN2CCOCC2)n1 [Compound D8S16N7] | 17.7%
CCCCCCCCCCCCCCCCCCSc1nc(NCCCCCCCCC)nc(NCCN(C)C)n1 [Compound D1S18N9] | 30.3%
CCCCCCCCCCCCCNc1nc(NCCCN2CCN(C)CC2)nc(SCCCCCC)n1 [Compound D9S6N13] | 6.6%
CCCCCCCCCCCCCCCNc1nc(NCCCN(C)C)nc(SCCCCCCCCCCCCCC)n1 [Compound D6S14N15] | 0.1%
CCCCCCCCCCCCCCCSc1nc(NCCCCCCC)nc(NCC2CCN(C)CC2)n1 [Compound D10S15N7] | 22.1%
CCCCCCCCCCCCCNc1nc(NCCN2CCOCC2)nc(SCCCCCC)n1 [Compound D2S6N13] | 0.2%
CCCCCCCCCCCCCCCCSc1nc(NCCCCCCCCC)nc(NCCN(C)C)n1 [Compound D1S16N9] | 26.4%
CCCCCCCCCCCCCNc1nc(NCCN(CC)CC)nc(SCCCCCC)n1 [Compound D7S6N13] | 2.6%
CCCCCCCCCCCCCCSc1nc(NCCCCCCCCCCCC)nc(NCCN2CCOCC2)n1 [Compound D2S14N12] | 2.1%
